Data as given in patent publication US8741843B2, “Compositions and methods for inducing angiogenesis” (priority 2006, dated 2014).
Entries after “also recorded” stand apart in the source; their conditions may differ.

What was measured:
[1] = test system: endothelial cells (HUVEC); experiment: Migration of endothelial cells under hypoxia (Chemicon QCM 96-well Migration Assay); type: cell-based, human; details: 5 hours hypoxia, 10 ng/ml
Procedure: FIG. 6 is a graph depicting migration of endothelial cells under hypoxia conditions. Endothelial cells (25,000) were incubated in endothelial cells growth medium free supplements in the migration chamber. ADOPep1 (SEQ ID NO:2), 2 (SEQ ID NO:3) and 3 (SEQ ID NO:4) were added to the feeder tray of the migratory kit at 1, 10 and 100 ng/ml for 5 hours hypoxia. Results were determined by a fluorescence ELISA reader and expressed as increase in percentage migration in Relative fluorescence Units.
FIGS. 26a-b are graphs depicting induction of endothelial cell migration under hypoxia by the ADOPEP motifs. Endothelial cells were incubated for 5 hours under hypoxia conditions in the presence of increasing concentrations of ADOPep1 (red line), peptide motif A (dark blue line), peptide motif B (green line) or peptide motif C (light blue line) and the migration of endothelial cells was detected. FIG. 26a—experiment 1; FIG. 26b—experiment 2.
Endothelial cell migration was evaluated by the Chemicon QCM 96-well Migration Assay (Chemicon International, Calif., USA) according to manufacturer's instructions. This kit utilizes a membrane with an 8 μm pore size. Migratory cells on the bottom of the insert membrane are dissociated from the membrane when incubated with cell detachment buffer provided by the kit. […] For the migration assay, HUVEC from passage 3 were incubated in endothelial cell (EC) growth medium free of supplements. After trypsinization, 25,000 EC were incubated in the migration chamber. ADOPeps were added at concentrations of 1, 10 and 100 ng/ml in the feeder tray for chemoattractant migration assay. Time of incubation was 5 hours for endothelial cells under hypoxic conditions. Results were determined in a Fluorescent ELISA reader at 480/520 nm.

[2] = target: T1, GRP78 on endothelial cells (Homo sapiens, UniProt P11021); experiment: FACS competition of peptides with GRP78 polyclonal antibody on endothelial cells under hypoxia; type: binding; details: hypoxic conditions; for inhibition of anti GRP78 binding to endothelial cells: ten micrograms of peptide
T1 construct: endogenous in cells; host or cells: HUVEC / endothelial cells from umbilical cords, under normoxia or hypoxia
T1 sequence (P11021 19-654): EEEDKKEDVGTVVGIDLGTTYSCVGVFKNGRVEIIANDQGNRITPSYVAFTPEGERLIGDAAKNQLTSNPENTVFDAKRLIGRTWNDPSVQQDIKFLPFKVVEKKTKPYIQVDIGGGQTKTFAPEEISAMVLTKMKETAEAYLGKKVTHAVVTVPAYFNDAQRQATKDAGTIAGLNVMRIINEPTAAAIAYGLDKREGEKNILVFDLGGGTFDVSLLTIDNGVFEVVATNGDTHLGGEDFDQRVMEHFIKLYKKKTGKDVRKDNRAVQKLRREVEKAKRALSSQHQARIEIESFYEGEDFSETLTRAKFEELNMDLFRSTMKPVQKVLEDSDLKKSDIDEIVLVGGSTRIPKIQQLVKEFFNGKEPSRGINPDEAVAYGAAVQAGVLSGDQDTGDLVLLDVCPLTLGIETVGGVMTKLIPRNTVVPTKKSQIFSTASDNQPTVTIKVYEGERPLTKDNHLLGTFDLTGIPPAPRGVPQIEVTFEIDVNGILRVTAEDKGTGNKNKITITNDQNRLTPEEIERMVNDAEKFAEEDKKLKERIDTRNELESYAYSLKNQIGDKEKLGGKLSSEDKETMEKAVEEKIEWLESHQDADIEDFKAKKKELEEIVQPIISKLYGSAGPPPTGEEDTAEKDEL
Procedure: Endothelial cells were cultured for 24 hours under hypoxic conditions in endothelial cell growth medium. Cells were removed by trypsin and incubated for 1 hour on ice with increasing concentrations of AdoPep1, Motif A and Motif C peptides. GRP78 polyclonal antibody (2 μg/100,000) was added to the cells for 2 hours on ice. Anti-goat FITC (Jackson ImmunoResearch) was added for 30 minutes on ice. IgG1-FITC was used as the isotype control. The samples were analyzed with a FACScan (Beckton Dickinson). […] FIG. 28d depicts the average percent binding of GRP78 to endothelial cells as a function of peptide amount as determined by 2 independent experiments.

ERK½ = ERK½ phosphorylation in endothelial cells under hypoxia (Western blot, densitometry); type: cell-based, human; details: for percent adjusted volume of pERK band: FIG. 31, cord 1, 10 ng/ml; for ERK½ phosphorylation (in words): endothelial cells under hypoxia; for ERK½ phosphorylation (in words) / incubation time of maximal ERK phosphorylation (densitometry, data not shown): 10 ng/ml; for incubation time of maximal ERK phosphorylation (densitometry, data not shown): hypoxia
Procedure: FIGS. 30a-b are Western blot analyses depicting induction of phosphorylation of ERK by ADoPep1 and Motif A. Endothelial cells under starvation conditions and 5 hours hypoxia were incubated for 5 (lanes 2 and 6), 20 (lanes 3 and 7), 30 (lanes 4 and 8) and 60 (lanes 5 and 9) minutes with 10 ng/ml ADoPep1 (Lanes 2-5) or Motif A (lanes 6-9) peptides or remained under hypoxia without a further incubation with a peptide (lane 1). After incubation, lysates were prepared, subject to SDS-PAGE and blotting on a nitrocellulose membrane. Western Blot analysis was performed using anti-Phospho ERK½ antibody. […] FIG. 30a—Experiment 1; FIG. 30b—Experiment 2. The percent adjusted volume as determined by a densitometric analysis software to compare net band densities was as follows: FIG. 30a, lane 1-4.5, lane 2-9.3, lane 3-13.7, lane 4-13.3, lane 5-11.2, lane 6-10.7, lane 7-12.4, lane 8-12.3 and lane 9-12.4; FIG. 30b, lane 1-4.21, lane 2-12.4, lane 3-12.5, lane 4-14.8, lane 5-10.9, lane 6-14.9, lane 7-9.8, lane 8-12.7 and lane 9-7.8.
FIG. 31 is a Western blot analysis depicting the level of phosphorylated ERK (pERK) in endothelial cells activated for 20 minutes with ADOPep1 and motif A and inhibited by pERK-inhibitor peptide. Endothelial cells (from cord 1) under starvation conditions and 5 hours hypoxia were incubated with 10 ng/ml ADOPep1 (lanes 3 and 4) or motif A (lanes 1 and 2) peptides in the presence (lanes 2 and 4) or absence (lanes 1 and 3) of p-ERK-inhibitor peptide (Santa Cruz). For control, the endothelial cells under starvation conditions and 5 hours hypoxia (lane 5) were also incubated with the p-ERK-inhibitor peptide (lane 6). […] The percent adjusted volume as determined by a densitometric analysis software to compare net band densities was as follows: lane 1-19, lane 2-14, lane 3-14, lane 4-8.8, lane 5-11, lane 6-2.1.
FIGS. 32a-b are Western blot analyses depicting the effect of ADOPeps on the level of phosphorylated ERK. Endothelial cells (EC) from cord 1 (FIG. 32a) or cord 2 (FIG. 32b) under hypoxia (5 hours) were incubated for 20 or 30 minutes with 10 ng/ml of AdoPep1, AdoPep2 and AdoPep3 or remained untreated (i.e., under hypoxia without any peptide). Western Blot analyses of samples cell lysates were performed with anti Phospho ERK antibody on nitrocellulose membranes. […] The percent adjusted volume as determined by a densitometric analysis software to compare net band densities was as follows: FIG. 32a, lane 1-11, lane 2-13, lane 3-11, lane 4-5, lane 5-11, lane 6-13, lane 7-17, lane 8-16.7; FIG. 32b, lane 1-17, lane 2-22, lane 3-19, lane 4-7, lane 5-8, lane 6-13, lane 7-14, lane 8-1.

[3] = FIG. 30a experiment 1, 10 ng/ml, 5 minutes, hypoxia alone 4.5
[4] = FIG. 30a experiment 1, 10 ng/ml, 20 minutes, hypoxia alone 4.5
[5] = FIG. 30a experiment 1, 10 ng/ml, 30 minutes, hypoxia alone 4.5
[6] = FIG. 30a experiment 1, 10 ng/ml, 60 minutes, hypoxia alone 4.5
[7] = FIG. 30b experiment 2, 10 ng/ml, 5 minutes, hypoxia alone 4.21
[8] = FIG. 30b experiment 2, 10 ng/ml, 20 minutes, hypoxia alone 4.21
[9] = FIG. 30b experiment 2, 10 ng/ml, 30 minutes, hypoxia alone 4.21
[10] = FIG. 30b experiment 2, 10 ng/ml, 60 minutes, hypoxia alone 4.21
[11] = 20 minutes, absence of p-ERK-inhibitor peptide, hypoxia alone 11
[12] = 20 minutes, presence of p-ERK-inhibitor peptide

Substance | migration of endothelial cells [1] | inhibition of anti GRP78 binding to endothelial cells (in words) [2] | inhibition of anti GRP78 binding to endothelial cells [2] | percent adjusted volume of phospho ERK½ band (ERK½; [3]) [%] | percent adjusted volume of phospho ERK½ band (ERK½; [4]) [%] | percent adjusted volume of phospho ERK½ band (ERK½; [5]) [%] | percent adjusted volume of phospho ERK½ band (ERK½; [6]) [%] | percent adjusted volume of phospho ERK½ band (ERK½; [7]) [%] | percent adjusted volume of phospho ERK½ band (ERK½; [8]) [%] | percent adjusted volume of phospho ERK½ band (ERK½; [9]) [%] | percent adjusted volume of phospho ERK½ band (ERK½; [10]) [%] | percent adjusted volume of pERK band (ERK½; [11]) [%] | percent adjusted volume of pERK band (ERK½; [12]) [%] | ERK½ phosphorylation (in words) (ERK½) | incubation time of maximal ERK phosphorylation (densitometry, data not shown) (ERK½) [min] | also measured
HWRRAHLLPRLP [ADOPep1, ADAM15 derived peptide, amino acids 286-297 of the metalloprotease domain] | most significant increase in EC migration; also recorded: induced endothelial cell migration | inhibit the binding of GRP78 to endothelial cells | approximately 80% | 9.3 | 13.7 | 13.3 | 11.2 | 12.4 | 12.5 | 14.8 | 10.9 | 14 | 8.8 | significant increase in ERK½ phosphorylation; also recorded: induced ERK½ phosphorylation | 20 | migration of endothelial cells ([1]; listed as ADOPep 1): induced increase in percent of migration; percent adjusted volume of phospho ERK band (ERK½; FIG. 32a cord 1, 10 ng/ml, 20 minutes, untreated 11, 13): 17%; percent adjusted volume of phospho ERK band (ERK½; FIG. 32a cord 1, 10 ng/ml, 30 minutes, untreated 11, 13): 16.7%; percent adjusted volume of phospho ERK band (ERK½; FIG. 32b cord 2, 10 ng/ml, 20 minutes, untreated 17): 22%; percent adjusted volume of phospho ERK band (ERK½; FIG. 32b cord 2, 10 ng/ml, 30 minutes, untreated 8): 13%; ERK½ phosphorylation (in words) (ERK½; listed as ADoPep1): induction of ERK½ phosphorylation
HWRRP [Motif A, 5 amino acid motif peptide] | induced endothelial cell migration | inhibit the binding of GRP78 to endothelial cells | ~60% | 10.7 | 12.4 | 12.3 | 12.4 | 14.9 | 9.8 | 12.7 | 7.8 | 19 | 14 | significant increase in ERK½ phosphorylation; also recorded: induction of ERK½ phosphorylation | 20 to 60 | 
